Earlier results in article PMC9781020, “Anti-Mycobacterial N-(2-Arylethyl)quinolin-3-amines Inspired by Marine Sponge-Derived Alkaloid” (Molecules, 2022).

System: drug-sensitive M. tuberculosis H37Rv and extensively drug-resistant M. tuberculosis strains
Conditions: cited from earlier work

COC1=Cc2ccnc3c(NCCc4ccccc4)cnc(c23)C1=O [Compound 1, 3-(phenethylamino)demethyl(oxy)aaptamine, reference compound]
MIC: 1.5 to 6.0 µM
